Data on four compounds can be found in PMC3545969, “Mutagenicity and antimutagenicity of (−)-hinokinin a trypanosomicidal compound measured by Salmonella microsome and comet assays” (BMC Complementary and Alternative Medicine, 2012).

Data set [1] deals with Salmonella typhimurium TA98. The following applies: TA 98, + S9, positive control 2-anthramine 1.25 μg/plate.
In data set [2] the test system is Salmonella typhimurium TA97a. The following applies: TA 97a, + S9, positive control 2-anthramine 1.25 μg/plate.
The test system of data set [3] is Salmonella typhimurium TA97a. To be noted: TA 97a, + S9, mutagen alone (Ctrol +), 2-AA 1.25 μg/plate.
Data set [4] relates to Salmonella typhimurium TA100.
The subject of the next data set is V79 cells. Kind of data set: Comet assay, genotoxicity in V79 cells. It counts as cell-based, Chinese hamster. Further details: Class 0 / Class 1 / Class 2 / Class 3: unit not given here. To be noted: for Class 0 / Class 1 / Class 2 / Class 3 / Score: 3 h. The protocol: Chinese hamster lung fibroblasts (V79) were kindly supplied by Professor Cólus (Universidade Estadual de Londrina (UEL), Paraná, Brazil). Cells were maintained as monolayers in plastic culture flasks (25 cm^2) in HAM-F10 (Sigma-Aldrich) plus DMEM (Sigma-Aldrich, 1:1) culture medium supplemented with 10%; fetal bovine serum (Nutricell), antibiotics (0.01 mg mL^−1 streptomycin and 0.005 mg mL^−1 penicillin; Sigma-Aldrich) and 2.38 mg mL^−1 Hepes (Sigma-Aldrich), at 37°C in a BOD-type chamber. Under these conditions, the average cell cycle time was 12 h.
HK was first dissolved in a mixture of methanol (100 μL) and distilled water (900 μL). The final concentration of methanol in the culture was 0.1%;. The choice of concentrations was based on the results of previous experiments with HK [12]. In the experiments, 3 × 10^5 cells (V79) were seeded into tissue-culture flasks, incubated for two cycles (24 h) in complete HAM-F10/DMEM medium, washed with phosphate buffer saline (PBS), and then subjected to one of the following treatments, in serum-free medium, for 3 h. To assess genotoxicity, the cells were treated with each concentration of HK alone, while for antigenotoxicity, they were treated with the mutagen DXR (0.3 μM) in combination with each HK concentration. Positive (DXR) and negative controls were also included in the test. At the end of the treatment, the cells were washed with ice-cold PBS and trypsinized with 200 μL trypsin. After 3 min, the cells were gently resuspended in complete medium and 20 μL of the cell suspension was immediately used for the test.
The procedures described by Singh et al. were adopted, with minor modifications, as described in detail by Speit and Hartmann and reviewed by Burlinson et al.. Briefly, a microscope slide was covered with a base layer of 1.5%; normal-melting agarose (Invitrogen) and 20 μL of the test cells suspended in 120 μL 0.5%; low-melting agarose (Invitrogen) at 37°C was then spread over the base layer. A coverslip was added and the agarose allowed to solidify at 4°C for 15 min. Next, the coverslip was gently removed and the slides were immersed in freshly prepared lysing solution consisting of 89 mL stock solution (2.5 M NaCl, 100 mM EDTA, 10 mM Tris, pH 10.0, and 1%; sodium lauryl sarcosine), 10 mL DMSO and 1 mL Triton X-100, pH 10.0, at 4°C, for at least 20 h, protected from light. At the end of this period, the slides were transferred to an electrophoresis chamber containing a high pH (>13.0) buffer (300 mM NaOH, 1 mM EDTA) and incubated at 4°C for 20 min to allow the DNA to unwind. A current of 25 V (1.0 V cm^−1, 300 mA) was applied for 20 min. The slides were then submerged in a neutralization buffer (0.4 M Tris - HCl, pH 7.5) for 15 min, dried at room temperature and fixed in 100%; ethanol for 10 min.
The slides were stained with 100 μL ethidium bromide (20 μg ml^−1) and covered with a coverslip. All the slides in the experiment were coded before analysis. The stained nucleoids were immediately evaluated at 1000x magnification under a Nikon fluorescence microscope fitted with a 515–560 nm excitation filter and a 590 nm barrier filter.
For each treatment, the extent and distribution of DNA damage indicated by the comet assay were evaluated by examining 100 randomly selected and non-overlapping cells on the slides (i.e. 300 nucleoids per treatment). For each slide, the cells were visually scored and allocated to one of four classes (0, 1, 2 and 3), according to tail size, as follows: class 0, undamaged, no tail; class 1, a short tail whose length was smaller than the diameter of the comet head (nucleus); class 2, tail length between 1 and 2 times the diameter of the head; and class 3, maximally damaged: a long tail measuring more than twice the diameter of the head. The few comets containing no head and those with almost all DNA in the tail, or with a very wide tail, were excluded from the analysis since they may arise from dead cells. […]

Data set [5] has as its system Salmonella typhimurium TA100. This is another data set of the same source.
Where [6] appears, read: DXR 0.3 μM alone (positive control).

Where two headings read alike, the source gives them in different places. Marks after values point to notes of the source that are not given here.

In the case of `Nc1ccc2cc3ccccc3cc2c1` [2-AA, 2-aminoanthracene, reference compound], the “Number of revertants(M ± SD)/ plate” value is listed as 1567 ± 115^e revertants/plate in data set [1]; 1789 ± 89^e revertants/plate in data set [2]; 1083 + 67 revertants/plate in data set [3]; 1456 ± 78^e revertants/plate in data set [4] (TA 100, + S9, positive control 2-anthramine 1.25 μg/plate).

For `COc1cccc2c1C(=O)c1c(O)c3c(c(O)c1C2=O)C[C@@](O)(C(=O)CO)C[C@@H]3O[C@H]1C[C@H](N)[C@H](O)[C@H](C)O1` [DXR, doxorubicin, reference compound], in the data set with V79 cells (DXR 0.3 μM + MeOH 0.1%), the “Class 0” value came to 46.3 ± 6.8, the “Class 1” value was 30.0 ± 6.0, the “Class 2” value is 16.3 ± 5.6 and the “Class 3” value is recorded as 6.6 ± 3.0. The Score in the data set on V79 cells (DXR 0.3 μM + MeOH 0.1%) is recorded as 83.3 ± 14.5^a. In addition, in the data set on V79 cells (setting [6]), the “Class 0” value amounted to 41.0 ± 12.0, the “Class 1” value turned out to be 36.0 ± 12.7, the “Class 2” value worked out at 18.0 ± 2.0 and the “Class 3” value is listed as 4.0 ± 2.5. Also, the Score in the data set on V79 cells (setting [6]) is on record as 86.0 ± 11.5^a. Further, in the data set on V79 cells (DXR 0.3 μM, V79 cells), the “rate of DNA damage relative to the negative control” value is “significant increase in the rate of DNA damage”.

`[N-]=[N+]=[N-].[Na+]` [SA, sodium azide, reference compound]: the “Number of revertants(M ± SD)/ plate” value in data set [5] is 1219 + 46 revertants/plate; in data set [4] it was 1582 ± 98^c revertants/plate.

Turning to aflatoxin B1 [AFB1, reference compound], the “Number of revertants(M ± SD)/ plate” value in data set [5] is 1607 + 79 revertants/plate.
